In US9309212B2, “Compositions and methods for modulating the activity of Epstein-Barr nuclear antigen 1” (The Wistar Institute, priority 2011, dated 2016) one finds binding result and IC50 data, which are given here for 35 molecules.

First the molecules themselves.
B1: EBNA1 BS Hairpin (opl 3016 / opl 4624) (structured_DNA)
DNA: GGGTAGCATATGCTATCTAGATAGCATATGCTACCC

For orientation: IC50 means the midpoint of a concentration-inhibition curve. A higher IC50 goes with a need for much substance.

T1 sequence (P03211 whole entry): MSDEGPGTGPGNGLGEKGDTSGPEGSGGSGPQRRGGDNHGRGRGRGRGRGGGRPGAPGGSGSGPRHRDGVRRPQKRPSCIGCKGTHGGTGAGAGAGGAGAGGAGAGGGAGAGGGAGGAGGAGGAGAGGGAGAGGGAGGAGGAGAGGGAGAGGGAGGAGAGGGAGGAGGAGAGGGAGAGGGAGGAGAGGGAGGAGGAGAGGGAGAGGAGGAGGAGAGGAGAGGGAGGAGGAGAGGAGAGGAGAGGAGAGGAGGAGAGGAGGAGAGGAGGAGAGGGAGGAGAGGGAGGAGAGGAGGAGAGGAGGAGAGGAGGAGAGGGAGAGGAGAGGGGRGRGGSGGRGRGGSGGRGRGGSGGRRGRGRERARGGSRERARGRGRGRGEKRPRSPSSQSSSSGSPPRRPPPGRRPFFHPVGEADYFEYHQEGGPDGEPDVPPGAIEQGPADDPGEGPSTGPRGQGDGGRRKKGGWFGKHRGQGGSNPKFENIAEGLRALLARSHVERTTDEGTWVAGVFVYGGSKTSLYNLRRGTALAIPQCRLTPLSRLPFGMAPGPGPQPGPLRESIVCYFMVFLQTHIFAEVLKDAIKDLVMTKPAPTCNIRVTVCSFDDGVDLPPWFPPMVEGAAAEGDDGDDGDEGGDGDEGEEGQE

One series deals with EBNA1 DNA binding domain (Human herpesvirus 4, UniProt P03211 SEQ:454-607). Put plainly: FP; 200 mM NaCl, 20 mM Tris-Cl pH 7.4, 1 mM DTT, 10 ug/mL BSA, 25 C; 5 nM probe; probe performed significantly better in FP than in EMSA comparison. Conditions: tags: hexa-histidine, E. coli expressed; chain copies: 2; label: CY5 (opl 3016) or FITC (opl 4624); hairpin. (Mobility shift assays separate free from complexed probe on a gel.)
Sequence of EBNA1 DNA binding domain (P03211 454-607): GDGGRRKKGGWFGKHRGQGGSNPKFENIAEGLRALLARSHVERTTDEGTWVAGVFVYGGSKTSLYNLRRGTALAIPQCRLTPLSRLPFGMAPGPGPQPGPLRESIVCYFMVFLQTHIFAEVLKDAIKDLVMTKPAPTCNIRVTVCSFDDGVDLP
As to B1, the binding result was “binds”.

The next series concerns the target T1, EBNA1 (Epstein-Barr virus, UniProt P03211).
T1 construct: expressed in transfected cells; host or cells: 293T cells
Put plainly: cell-based assay (EBNA1 transcription derepression assay, Qp-luciferase reporter in 293T cells). Conditions: final concentration range 125 μM-2 nM, 125000 nM = not active. The protocol:
EBNA1 Transcription Derepression Assay.
293T cells were seeded in 10-cm plates in DMEM media with 10% FBS. Following a 18-hour incubation at 37° C. to allow cells to adhere, cells at 50-70% confluence were transfected using 40 μL LIPOFECTAMINE (INVITROGEN) per plate. The cells were transfected with a 4 μg Qp-luciferase reporter plasmid (N1852) and 0.125 μg EBNA1 expression plasmid (N803) or 4 μg Qp-luciferase reporter plasmid (N1852) and 0.125 μg control plasmid (N799) (no EBNA) per plate. After 24 hours, the cells were harvested without trypsin, centrifuged 1200 RPM for 5 minutes and resuspended in DMEM media with 10% FBS at a concentration 100,000 cells per milliliter. Forty μL of this solution […] was dispensed to each well of the white plate using a BIOTEK MICROFLO Select Dispenser. Test compounds were added to achieve a final concentration range of 125 μM-2 nM, as described above. Cells were incubated at 37° C. for 48 hours, harvested and analyzed for luciferase activity using the PROMEGA STEADY-GLO luciferase system and read using a PERKIN ELMER 2104 Multilabel Reader.
Compounds were screened for activity in the cell-based assay disclosed herein.
(Reporter assays use an easily measured gene product as a stand-in for the process of interest.)
As for `O=C(Nc1ccc(F)c(F)c1)c1ccc2occc2c1` [VKE01471], the midpoint of inhibition, the IC50, lay at 847 nM. On the same count and under the same terms, to `CCc1ccccc1C(=O)Oc1ccc2occ([N+](=O)[O-])c2c1` [VKE01450] belongs 9020 nM. `O=C(Oc1ccc2occ([N+](=O)[O-])c2c1)c1ccncn1` [VKE01445] returned an IC50 of more than 125000 nM. For `O=C(Nc1ccccn1)c1ccc2occc2c1` [VKE01472], the IC50 was 152 nM. Regarding `O=C(Cc1ccc(Cl)cc1Cl)Oc1ccc2occ([N+](=O)[O-])c2c1` [VKE01443], the IC50 is more than 125000 nM. The same measure, in the same setting: the same measure for `Cc1cc(NC(=O)c2ccc3occc3c2)ccc1Cl` [VKE01470]: 42 nM. Still for that read-out and setting: the same measure for `O=C(Oc1ccc2occ([N+](=O)[O-])c2c1)c1ccc(N2CCOCC2)cc1` [VKE01448]: 30600 nM. `O=C(Oc1ccc2occ([N+](=O)[O-])c2c1)c1cccnc1` [VKE01444] gave an IC50 of more than 125000 nM. On the same count and under the same terms, the same measure for `O=C(Oc1ccc2occ([N+](=O)[O-])c2c1)c1ccc(F)cc1Cl` [VKE01451]: 3280 nM; for `O=C(Nc1ccc2occc2c1)c1ccno1` [VKE01466]: 83800 nM.

With `O=C(Oc1ccc2occ([N+](=O)[O-])c2c1)c1ncccc1C(F)(F)F` [VKE01446], the 50% inhibitory concentration (IC50) is more than 125000 nM.

Regarding `O=C(Oc1ccc(Cl)cc1)c1ccc2occc2c1` [VKE01441], the IC50 turned out to be 9060 nM. `O=C(Nc1ccc2occc2c1)c1cccnc1` [VKE01463]: half-maximal inhibition (IC50) was put at 1260 nM. On the same count and under the same terms, to `O=C(Nc1ccc2occc2c1)c1ccncn1` [VKE01465] belongs 1660 nM; to `O=[N+]([O-])c1coc2ccc(OCc3ccc(OC(F)(F)F)cc3)cc12` [VKE01456], 14000 nM; to `O=C(Nc1ccccc1F)c1ccc2occc2c1` [VKE01467], 674 nM.

With `CCCCc1ccc(C(=O)Oc2ccc3occ([N+](=O)[O-])c3c2)cc1` [VKE01453], the IC50 was determined as 1240 nM. The same measure, in the same setting: to `O=C(Nc1cccc(Cl)c1)c1ccc2occc2c1` [VKE01468] belongs 813 nM.

`O=C(Nc1ccncc1)c1ccc2occc2c1` [VKE01473] showed an IC50 of 20800 nM. The molecule `O=[N+]([O-])c1coc2ccc(OCc3ccc(Cl)cc3)cc12` [VKE01454] had an IC50 of 9780 nM. The same measure, in the same setting: to `O=C(Oc1ccc2occ([N+](=O)[O-])c2c1)c1ccno1` [VKE01447] belongs more than 125000 nM; to `O=C(Nc1ccc2occc2c1)c1ccc(N2CCOCC2)cc1` [VKE01462], 298 nM; to `O=C(Oc1ccc2occ([N+](=O)[O-])c2c1)c1ccccc1C(F)(F)F` [VKE01449], more than 125000 nM. `O=C(Nc1ccc2occc2c1)c1ccc(F)cc1Cl` [VKE01457] came in with an IC50 of 18.9 nM. In the case of `O=[N+]([O-])c1coc2ccc(OCc3ccccc3)cc12` [VKE01455], the IC50 was 27200 nM. The same measure, in the same setting: the same measure for `CCc1ccccc1C(=O)Nc1ccc2occc2c1` [VKE01461]: 1020 nM; for `CCCCc1ccc(C(=O)Nc2ccc3occc3c2)cc1` [VKE01460]: 12.3 nM. Still for that read-out and setting: to `O=C(Nc1ccc2occc2c1)c1ccccc1C(F)(F)F` [VKE01459] belongs 6520 nM; to `O=C(Nc1ccc2occc2c1)c1ccc(C(F)(F)F)cc1` [VKE01458], 4.76 nM. The same measure, in the same setting: the same measure for `O=C(Nc1ccc2occc2c1)c1ncccc1C(F)(F)F` [VKE01464]: 1090 nM. `Cc1csc(NC(=O)c2ccc3occc3c2)n1` [VKE01474] registered an IC50 of 60.2 nM.

On to `CC(C)(C)c1ccc(NC(=O)c2ccc3occc3c2)cc1` [VKE01469], for which 62.7 nM corresponded to half-maximal inhibition (IC50). `Cc1cc(C)cc(CC(=O)Oc2ccc3occ([N+](=O)[O-])c3c2)c1` [VKE01452] showed an IC50 of more than 125000 nM. On the same count and under the same terms, the same measure for `CC(C)(C)c1ccc(OC(=O)c2ccc3occc3c2)cc1` [VKE01442]: 2630 nM.
